Data taken from paper PMC5760531, “Action Potential Recording and Pro-arrhythmia Risk Analysis in Human Ventricular Trabeculae” (Frontiers in Physiology, 2018).
Several values for one entry are separate records, joined by “and”; a condition that tells them apart may be missing. Equal entries are not always repeated.

What was measured:
[1] = human free (unbound) effective therapeutic plasma concentration used to calculate multiples; cited from earlier work
[2] = test system: human ventricular trabeculae; assay: Action potential recording and pro-arrhythmic score analysis in human ventricular trabeculae (hVT); conditions: for EAD induction: any testing concentration, 1 and 2 Hz;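 as to all read-outs here: sharp microelectrode action potential recordings at 37°C in Tyrode-perfused trabeculae, 4 cumulative concentrations each applied 31 min, values averaged over last 30 APs, vehicle 0.1% DMSO as control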
[3] = 1Hz, c1-c4: 0.4-, 1.3-, 13-, 43-FOLD free ETPC (2.3µM)
[4] = 2Hz, c1-c4: 0.4-, 1.3-, 13-, 43-FOLD free ETPC (2.3µM)
[5] = average raw data, 1Hz, c2-c5: 0.4-, 1.3-, 13-, 43-FOLD free ETPC (2.3µM)
[6] = average raw data, 2Hz, c2-c5: 0.4-, 1.3-, 13-, 43-FOLD free ETPC (2.3µM)
[7] = 1Hz, c1-c4: 2-FOLD, 21-FOLD, 69-OLD, 207-FOLD free ETPC (0.145µM)
[8] = 2Hz, c1-c4: 2-FOLD, 21-FOLD, 69-OLD, 207-FOLD free ETPC (0.145µM)
[9] = average raw data, 1Hz, c2-c5: 2-FOLD, 21-FOLD, 69-OLD, 207-FOLD free ETPC (0.145µM)
[10] = average raw data, 2Hz, c2-c5: 2-FOLD, 21-FOLD, 69-OLD, 207-FOLD free ETPC (0.145µM)
[11] = initial 3 testing concentrations
[12] = 1Hz, c1-c4: 25-, 75-, 250-, 2500-FOLD free ETPC (0.0004µM)
[13] = 2Hz, c1-c4: 25-, 75-, 250-, 2500-FOLD free ETPC (0.0004µM)
[14] = average raw data, 1Hz, c2-c5: 25-, 75-, 250-, 2500-FOLD free ETPC (0.0004µM)
[15] = average raw data, 2Hz, c2-c5: 25-, 75-, 250-, 2500-FOLD free ETPC (0.0004µM)

COc1ccccc1OCC(O)CN1CCN(CC(=O)Nc2c(C)cccc2C)CC1 (stereo not shown) [RANOLAZINE, Ranolazine]
Free ETPC [1]: 2.3 µM
EADs incidence [2, 3]: 0%
Refractoriness Escape incidence [2, 3]: 0%
EADs incidence [2, 4]: 0%
Refractoriness Escape incidence [2, 4]: 0%
AMAX [2, 5]: 112 mV and 111 mV and 113 mV and 109 mV
APD30 [2, 5]: 146 ms and 136 ms and 126 ms and 116 ms
APD50 [2, 5]: 198 ms and 187 ms and 181 ms and 170 ms
APD90 [2, 5]: 266 ms and 257 ms and 274 ms and 294 ms
Alternans [2, 5]: 0.34 and 0.37 and 0.39
EADs [2, 5]: 0
ERP [2, 5]: 0.47 and 0.48 and 0.50 and 0.49
Max Dispersion [2, 5]: 1.65 and 1.42 and 1.45 and 1.75
Refractoriness Escape [2, 5]: 0
STV [2, 5]: 0.22 and 0.27 and 0.29 and 0.24
Triangulation [2, 5]: 121 and 148 and 178
AMAX [2, 6]: 111 mV and 105 mV
APD30 [2, 6]: 108 ms and 102 ms and 99 ms and 104 ms
APD50 [2, 6]: 151 ms and 144 ms and 143 ms
APD90 [2, 6]: 215 ms and 210 ms and 230 ms and 275 ms
EADs [2, 6]: 0
ERP [2, 6]: 0.48 and 0.49 and 0.47
Refractoriness Escape [2, 6]: 0
Triangulation [2, 6]: 107 and 108 and 131 and 172

CC(CC(c1ccccc1)c1ccccc1)NC(C)(C)C (stereo not shown) [TERODILINE, Terodiline]
Free ETPC [1]: 0.145 µM
EADs incidence [2, 7]: 0%
Refractoriness Escape incidence [2, 7]: 0%
EADs incidence [2, 8]: 0%
Refractoriness Escape incidence [2, 8]: 0%
STV ([2]; 2 Hz, first concentration): 0.9
STV ([2]; 2 Hz, third concentration): 2.2
STV increase ([2]; 2 Hz, third versus first concentration): 144%
EAD induction [2]: did not induce EAD
AMAX [2, 9]: 111 mV and 110 mV and 108 mV and 102 mV
APD30 [2, 9]: 151 ms and 142 ms and 126 ms and 113 ms
APD50 [2, 9]: 200 ms and 192 ms and 178 ms and 164 ms
APD90 [2, 9]: 270 ms and 268 ms and 293 ms
Beat Escape [2, 9]: 1
EADs [2, 9]: 0
ERP [2, 9]: 0.44 and 0.45 and 0.48 and 0.49
Refractoriness Escape [2, 9]: 0
Triangulation [2, 9]: 119 and 126 and 144 and 180
AMAX [2, 10]: 109 mV and 108 mV and 106 mV and 100 mV
APD30 [2, 10]: 115 ms and 108 ms and 100 ms and 104 ms
APD50 [2, 10]: 157 ms and 150 ms and 140 ms and 151 ms
APD90 [2, 10]: 225 ms and 223 ms and 228 ms and 276 ms
Beat Escape [2, 10]: 1
EADs [2, 10]: 0
ERP [2, 10]: 0.45 and 0.47 and 0.48
Refractoriness Escape [2, 10]: 0
Triangulation [2, 10]: 110 and 115 and 128 and 172
effect on amplitude of AP ([2]; especially at 30 μM): decreased the amplitude of AP
change in APD90 [2, 11]: less than 10%
change in triangulation [2, 11]: ≥ 20%

Cc1ccc(O)c([C@H](CCN(C(C)C)C(C)C)c2ccccc2)c1 [TOLTERODINE, Tolterodine]
Free ETPC [1]: 0.0004 µM
Beat Escape incidence [2, 12]: 0%
EADs incidence [2, 12]: 0%
Refractoriness Escape incidence [2, 12]: 0%
Beat Escape incidence [2, 13]: 0%
EADs incidence [2, 13]: 0%
Refractoriness Escape incidence [2, 13]: 0%
EAD induction [2]: did not induce EAD
AMAX [2, 14]: 110 mV and 113 mV and 107 mV and 112 mV
APD30 [2, 14]: 186 ms and 190 ms and 192 ms and 195 ms
APD50 [2, 14]: 248 ms and 256 ms and 279 ms and 294 ms
APD90 [2, 14]: 320 ms and 331 ms and 378 ms and 411 ms
Alternans [2, 14]: 0.39 and 0.41 and 0.53 and 0.63
Beat Escape [2, 14]: 0
EADs [2, 14]: 0
ERP [2, 14]: 0.46 and 0.47 and 0.53 and 0.55
Max Dispersion [2, 14]: 2.33 and 1.97 and 2.80 and 2.90
Refractoriness Escape [2, 14]: 0
STV [2, 14]: 0.32 and 0.28 and 0.38 and 0.40
Triangulation [2, 14]: 134 and 141 and 186 and 215
AMAX [2, 15]: 107 mV and 113 mV and 106 mV
APD30 [2, 15]: 131 ms and 143 ms and 136 ms and 134 ms
APD50 [2, 15]: 184 ms and 197 ms and 203 ms and 210 ms
APD90 [2, 15]: 254 ms and 268 ms and 299 ms and 327 ms
Beat Escape [2, 15]: 0
EADs [2, 15]: 0
ERP [2, 15]: 0.49 and 0.48 and 0.54 and 0.56
Max Dispersion [2, 15]: 2.38 and 2.93 and 4.08 and 4.05
Refractoriness Escape [2, 15]: 0
Triangulation [2, 15]: 123 and 126 and 163 and 193
effect on amplitude of AP ([2]; up to the highest testing concentration, 1 μM): negligible effects
